From ChEMBL document CHEMBL1139856, “Smallest peptoids with antiproliferative activity on human neoplastic cells” (J Med Chem, 2007)

Tests used:
[1] = system: Jurkat; test: Cytotoxicity against human Jurkat T cells at <100 uM after 72 hrs; type: cell-based
[2] = system: HL-60; test: Cytotoxicity against human HL60 cells at <100 uM after 72 hrs; type: cell-based; settings: hl-60, 72 h
[3] = Cytotoxicity against human Jurkat T cells after 72 hrs; type: cell-based
[4] = Cytotoxicity against human MDA-MB-231 cells after 72 hrs; type: cell-based
[5] = Cytotoxicity against human A549 cells after 72 hrs; type: cell-based
[6] = Cytotoxicity against human HL60 cells after 72 hrs; type: cell-based, HL-60
[7] = system: HT-29; test: Cytotoxicity against human HT29 cells after 72 hrs; type: cell-based; settings: ht-29, 72 h
[8] = system: HeLa; test: Antimitotic activity against human HeLa cells after 18 hrs; type: functional, cell-based

| IC50 [8] | Structure (SMILES) | Activity [1] | Activity [2] | GI50 at 72 h [3] | GI50 at 72 h [4] | GI50 at 72 h [5] | GI50 at 72 h [6] | GI [7] |
| --- | --- | --- | --- | --- | --- | --- | --- | --- |
|  | NC(=O)CN(CC1CCCO1)C(=O)CNCCC(c1ccccc1)c1ccccc1 (stereo unspecified) | Not Active | Not Active |  |  |  |  |  |
|  | NC(=O)CN(CCC(c1ccccc1)c1ccccc1)C(=O)CNCC1CCCO1 (stereo unspecified) | Not Active | Not Active |  |  |  |  |  |
|  | COc1ccc(CCN2CC(=O)N(CCC(c3ccccc3)c3ccccc3)CC2=O)cc1 | Not Active | Not Active |  |  |  |  |  |
|  | O=C1CN(CC2CCCO2)C(=O)CN1CCC(c1ccccc1)c1ccccc1 (stereo unspecified) | Not Active | Not Active |  |  |  |  |  |
| 25 nM | COc1ccc(CCN(CC(=O)NCCC(c2ccccc2)c2ccccc2)C(=O)CNCCC(c2ccccc2)c2ccccc2)cc1 |  |  | 3.75 µM | 1020 nM | 1020 nM | 2.94 µM | 1.04 µM |
|  | O=C(CN(CCC(c1ccccc1)c1ccccc1)C(=O)CNCC1CCCO1)NCCC(c1ccccc1)c1ccccc1 (stereo unspecified) |  |  | 5.83 µM | 1060 nM | 1060 nM | 23 µM | 0.94 µM |
|  | COc1ccc(CCN(CC(=O)N(CCC(c2ccccc2)c2ccccc2)CC(N)=O)C(=O)CNCCC(c2ccccc2)c2ccccc2)cc1 |  |  | 6.68 µM | 1320 nM | 1410 nM | 21.8 µM | 1.41 µM |
| 35 nM | O=C(CNCCC(c1ccccc1)c1ccccc1)NCCC(c1ccccc1)c1ccccc1 |  |  | 10.2 µM | 3460 nM | 3460 nM | 12.6 µM | 3.03 µM |
|  | COc1ccc(CCN(CC(N)=O)C(=O)CNCCC(c2ccccc2)c2ccccc2)cc1 |  |  | 33.9 µM | 19100 nM |  | 31.1 µM | 9.14 µM |
| 154 nM | NC(=O)CN(CCC(c1ccccc1)c1ccccc1)C(=O)CNCCC(c1ccccc1)c1ccccc1 |  |  | 10.5 µM | 3080 nM | 3080 nM | 13.2 µM | 1.64 µM |
|  | COc1ccc(CCNCC(=O)N(CCC(c2ccccc2)c2ccccc2)CC(N)=O)cc1 |  |  | 27.3 µM | 9360 nM | 9360 nM | 29.1 µM | 9.14 µM |
| 994 nM | COc1ccc(CCNCC(=O)NCCC(c2ccccc2)c2ccccc2)cc1 |  |  | 18 µM | 2730 nM | 3730 nM | 10.6 µM | 1.89 µM |
|  | NC(=O)CN(CCC(c1ccccc1)c1ccccc1)C(=O)CN(CCC(c1ccccc1)c1ccccc1)C(=O)CNCC1CCCO1 (stereo unspecified) [TRIMER I] |  |  | 21.3 µM | 2720 nM | 2570 nM | 3.55 µM | 2.27 µM |
